Measurements from patent publication US3959359A, “Phenoxyalkylamines, process for their preparation and therapeutical composition containing same” (priority 1968, dated 1976).
Like-named read-outs stand apart in the source and are kept apart here.

Tests used:
patients = experiment: Clinical experiments in patients with anginose states or ischemic diseases of the heart; format: in vivo, human
Description: The compound prepared in example 4 (1-(1-hydroxypropyl)-4-[2-(1-methyl-phenethylamino)-ethoxy]-benzene hydrochloride) was experimented in four different Cardiology Services. 211 patients were treated with this compound. These patients suffered from different anginose states or from ichemic diseases of the heart (coronary failures or after-effects of infarct). […] Therefore the tolerance is excellent.

duodenum of rats = experiment: Beta-stimulant action, inhibition of acetylcholine-induced contraction of isolated duodenum; design: species or system rat (Sprague Dawley); details: 0.1 γ/ml of bath; for % Inhibition of cholinergic contraction (beta-stimulant action): acetylcholine 0.1 γ/ml; for beta-stimulant action: in words
Description: A comparison was made of the beta-stimulant action of the same compounds as used in the above experiment.
The duodenum of rats (Sprague Dawley strain) weighing about 150 g is taken immediately post-mortem. The test organ is immediately placed in a suitable cell for the isolated organ (oxygenated Tyrode's solution maintained at a temperature of 37°C).
Addition of acetylcholine (0.1 γ/ml) to the bath induces a contraction of the organ which is immediately transmitted via a strain gauge to a potentiometric recording device.
Addition of a beta-stimulant material causes inhibition of this […].
A comparison was made between the actions of various materials on cholinergic contractions.

[1] = test system: rat uterus (uterine cornuae); experiment: Uterine relaxant activity, inhibition of spontaneous contractions of the isolated uterus (De Jalon method); design: species or system rat (Sprague Dawley); details: 0.5 γ/ml of bath; for uterine relaxant effect: in words
Description: The study was conducted on rat uterus, using the following compounds:
The conventional method of De Jalon, Bayo and De Jalon (1945). Farmacoter. act. 3, 313 -- also reported in the book : "Pharmacological Experiments on Isolated Preparations" by the staff of the Department of Pharmacology, University of Edinburgh, published by E. & S. Livingstone Ltd, London -- was used, the pharmacological investigation being conducted on the uterine cornuae of female rats (Sprague Dawley strain) kept alive in a survival liquid.
A tank containing Tyrode's solution is maintained at a constant temperature of 32°C. The test organ is suspended to a strain gauge for the purpose of recording the contractions on a potentiometric recorder. The uterine cornuae are taken from non-gravid puberal female rats having an average weight of 160 g.
The day prior to the test, the animals are administered a di-ethyl-stilboestrol injection. Postmortem, the cornuae are isolated as rapidly as possible and a 15 mm fragment from which the connective tissue has been removed is placed in the experimental cell.
During oestrum, regular spontaneous contractions (FIG. 1) are noted; such oscillations are stable within 30-60 minutes, after washing several times with suitably oxygenated Tyrode's solution.
Addition to the bath of uterine relaxant material produces, at a low dosage, a total inhibition of such spontaneous contractions.

[2] = test system: isolated heart (coronary rate of flow); experiment: Coronary dilator activity, Langendorff's method on the isolated heart; design: species or system rabbit (Fauve de Bourgogne); ED 50: unit not given beside the values; details: for activation at 0.005 mg: 5 γ injected; for activation at 0.01 mg: 10 γ injected; for activation at 0.02 mg: 20 γ injected; for activation at 0.04 mg: 40 γ injected; for activation at 0.08 mg: 80 γ injected; for activation at 0.16 mg: 160 γ injected; for ED 50: 50% increase of original coronary rate of flow; for activation at 0.025 mg: 25 γ injected; for activation at 0.05 mg: 50 γ injected
Description: The coronary dilator activity was studied according to Langendorff's method on the isolated heart.
The tests were carried out on the hearts of young Fauve de Bourgogne (about 1.5 kg) rabbits. The hearts were rapidly taken out and maintained in surviving condition by perfusion of a physiological (Tyrode type) liquid heated at 37°C and oxygenated under a constant pressure of 50-60 cm of water. The heart was perfused countercurrently.
Volumetric determinations of the coronary rate of flow were then recorded at thirty second intervals.
After stabilization of the basic rate of flow, the test compound, dissolved in physiological saline solution, was injected in the perfusion liquid, in a volume of from 0.05 to 0.2 ml.
In the same heart, increasing dosages of all three compounds were tested by injecting alternatively a predetermined dose for each one of the three compounds.
Each injection was made 4-5 minutes after a stable rate of flow was attained.
The tests were carried out as above with three rabbits.

beta receptor = details: International Conference on Duvadilan, May 1962; cited from earlier work
[3] = cited from earlier work
[4] = compared to Isoxsuprine; cited from earlier work
uterus = details: in words; cited from earlier work
[5] = Oryctolagus cuniculus, Table I, heart A, read-out: increase of coronary rate of flow
[6] = Oryctolagus cuniculus, Table I, heart B, read-out: increase of coronary rate of flow
[7] = Oryctolagus cuniculus, Table II, heart No. 1, read-out: increase of coronary rate of flow
[8] = Oryctolagus cuniculus, Table II, heart No. 2, read-out: increase of coronary rate of flow
[9] = Oryctolagus cuniculus, Table II, heart No. 3, read-out: increase of coronary rate of flow

SMILES | % Inhibition of cholinergic contraction (beta-stimulant action) (duodenum of rats) | beta-stimulant action (duodenum of rats) | % Inhibition of spontaneous uterine contractions [1] | uterine relaxant effect [1] | activation at 0.005 mg [2, 5] | activation at 0.01 mg [2, 5] | activation at 0.02 mg [2, 5] | activation at 0.04 mg [2, 5] | activation at 0.01 mg [2, 6] | activation at 0.02 mg [2, 6] | activation at 0.04 mg [2, 6] | activation at 0.08 mg [2, 6] | activation at 0.04 mg [2, 7] | activation at 0.08 mg [2, 7] | activation at 0.16 mg [2, 7] | activation at 0.02 mg [2, 8] | activation at 0.04 mg [2, 8] | activation at 0.04 mg [2, 9] | ED 50 ([2]; Table I, heart A) | ED 50 ([2]; Table I, heart B) | also measured
CCC(O)c1ccc(OCCNC(C)Cc2ccccc2)cc1 (centres unmarked) [Example 4, 1-(1-hydroxy-propyl)-4[2-(1-methyl-phenethylamino)-ethoxy]-benzene] | 15% | only a slight beta-stimulant effect | 0% | absolutely no uterine relaxant effect | 30% | 33% | 67% | 93% | 11% | 30% | 55% | 78% | 33% | 54% | 78% | 50% | 80% | 46% | 11 γ | 35 γ | contra-indication (patients; 211 patients): no contra-indication; modification of cardiac frequency and arterial pressure (patients; 211 patients): no modification of the cardiac frequency and of the arterial pressure; tolerance (patients; 211 patients): excellent; favourable results (number of patients) (patients; 211 patients treated): 172 patients; favourable results (share of patients) (patients; 211 patients treated): 81.5%; activation at 0.002 mg ([2]; Oryctolagus cuniculus, Table I, heart A, 2 γ injected, read-out: increase of coronary rate of flow): 10%; activation at 0.01 mg [2, 8]: 33%; activation at 0.02 mg [2, 9]: 17%; activation at 0.08 mg [2, 9]: 50%; activation at 0.16 mg [2, 9]: 75%
CC(COc1ccccc1)NC(C)C(O)c1ccc(O)cc1 (centres unmarked) [Isoxsuprine, 1-(p-hydroxyphenyl)-2-(1-methyl-2 phenoxyethylamino) propanol-1, reference compound] | 100% | highly beta-stimulant action | 100% | total uterine relaxant action | – | – | – | – | – | – | – | – | 8% | 20% | 50% | 17% | 43% | 0% | – | – | mechanism of uterine relaxant activity (beta receptor): essentially due to beta receptor activation; ventricular stimulability ([3]; in view of beta-stimulant properties): increases ventricular stimulability; possible occurrence of extrasystoles ([3]; particularly ventricular extrasystoles): increases also the possible occurrence of extrasystoles; activation at 0.08 mg [2, 8]: 60%; activation at 0.08 mg [2, 9]: 17%; activation at 0.16 mg [2, 9]: 33%; activation at 0.32 mg ([2]; Oryctolagus cuniculus, Table II, heart No. 3, 320 γ injected, read-out: increase of coronary rate of flow): 50%; activation at 0.64 mg ([2]; Oryctolagus cuniculus, Table II, heart No. 3, 640 γ injected, read-out: increase of coronary rate of flow): 75%
CC(COc1ccccc1)NC(C)C(O)c1ccccc1 (centres unmarked) [Compound D, reference compound] | 100% | highly beta-stimulant action | 70% | reduced uterine relaxant effect | – | – | – | – | – | – | – | – | – | – | – | – | – | – | – | – | –
CCC(=O)c1ccc(OCCNC(C)Cc2ccccc2)cc1 (centres unmarked) [Example 1, 4-[2-(1-methyl-phenethylamino)-ethoxy]-propiophenone] | 15% | only a slight beta-stimulant effect | 0% | absolutely no uterine relaxant effect | 12% | 34% | 47% | 50% | 8% | 37% | 50% | 62% | – | – | – | – | – | – | 27 γ | 44 γ | activation at 0.08 mg [2, 5]: 80.5%
CC(COc1ccccc1)NC(C)Cc1ccccc1 (centres unmarked) [N-(2-phenyl-1-methyl-ethyl)-2-phenoxy-1-methyl-ethylamine] | – | – | – | – | – | – | – | – | – | – | – | – | – | – | – | – | – | – | – | – | vasodilator activity [4]: reduced vasodilator activity compared to Isoxsuprine; uterus relaxant activity (uterus): uterus relaxants
CCCC(=O)c1ccc(OCCNC(C)Cc2ccccc2)cc1 (centres unmarked) [Example 5, 4-[2-(1-methyl-phenethylamino)-ethoxy]-butyrophenone] | – | – | – | – | – | 21% | – | – | 16% | – | – | – | – | – | – | – | – | – | 24 γ | 45 γ | activation at 0.025 mg [2, 5]: 57%; activation at 0.05 mg [2, 5]: 64%; activation at 0.025 mg [2, 6]: 39%; activation at 0.05 mg [2, 6]: 50%
